Measured values published in patent publication EP0162494A1, “Process for the preparation of a 3-hydroxy-2,3-dihydrobenzisothiazole 1,1-dioxide and the use of this compound as a biocide and for preparing an ortho-sulphobenzimide” (AKZO N.V., priority 1984, dated 1985).
In brackets after ≈: the same amount, converted by molar mass.

Key:
Pseudomonas aeruginosa = experiment: MIC, modified DGHM dilution method; format: cell-based; details: A.C. = active compound
Escherichia coli = experiment: MIC, modified DGHM dilution method; format: cell-based; details: A.C. = active compound
Proteus mirabilis = experiment: MIC, modified DGHM dilution method; format: cell-based; details: A.C. = active compound
Staphylococcus aureus = experiment: MIC, modified DGHM dilution method; format: cell-based; details: A.C. = active compound
Streptococcus faecalis = experiment: MIC, modified DGHM dilution method; format: cell-based; details: Enterococcus faecalis, A.C. = active compound
Candida albicans = experiment: MIC, modified DGHM dilution method; format: cell-based; details: A.C. = active compound
Saccharomyces cerevisiae = experiment: MIC, modified DGHM dilution method; format: cell-based; details: A.C. = active compound
Chaetomium globosum = experiment: MIC, modified DGHM dilution method; format: cell-based; details: A.C. = active compound
Paecillomyces varioti = experiment: MIC, modified DGHM dilution method; format: cell-based; details: A.C. = active compound
Trichoderma viride = experiment: MIC, modified DGHM dilution method; format: cell-based; details: A.C. = active compound
Aspergillus niger = experiment: MIC, modified DGHM dilution method; format: cell-based; details: A.C. = active compound
Pellicularia sasaki = experiment: MIC, modified DGHM dilution method; format: cell-based; details: A.C. = active compound
Pyricularia oryzae = experiment: microbe, parasite or virus in culture; format: cell-based; details: read-out: MIC-values
fungi = experiment: MIC, DGHM dilution test method, by type of microorganism; format: cell-based; details: read-out: minimum growth inhibiting concentration (MIC value)
Protocol: (§1) The minimum growth inhibiting concentration (MIC value) of 3-hydroxy-2,3-dihydrobenzisothiazole-1,1-dioxide for the different types of microorganisms was determined in conformity with the dilution test method of the "Deutsche Gesellschaft fUr Hygiene und Mikrobiologie" (DGHM) and are: […]

gram negative bacteria = experiment: as above; format: cell-based; details: read-out: minimum growth inhibiting concentration (MIC value)
Protocol: as §1

gram positive bacteria = experiment: as above; format: cell-based; details: read-out: minimum growth inhibiting concentration (MIC value)
Protocol: as §1

yeasts = experiment: as above; format: cell-based; details: read-out: minimum growth inhibiting concentration (MIC value)
Protocol: as §1

[1] = Acute oral toxicity in rats; format: in vivo; details: for LD50 at 24 h / LD50 at 48 h / LD50 at 336 h: rat, in vivo, po; for LD50 at 24 h: after 24 hours; for LD50 at 48 h: after 48 hours; for LD50 at 336 h: after 14 days
[2] = system: sulfphate reducing bacteria; experiment: Bacteriostatic activity towards sulphate reducing bacteria; format: cell-based; details: result in words
certain bacteria = experiment: Synergy with quaternary ammonium compounds; format: cell-based; details: in combination with some quaternary ammonium compounds such as dimethylbenzyl coco-ammonium chloride or didecyldimethyl ammonium chloride

| Compound | MIC (Pseudomonas aeruginosa) [µg/mL] | MIC (Escherichia coli) [µg/mL] | MIC (Proteus mirabilis) [µg/mL] | MIC (Staphylococcus aureus) [µg/mL] | MIC (Streptococcus faecalis) [µg/mL] | MIC (Candida albicans) [µg/mL] | MIC (Saccharomyces cerevisiae) [µg/mL] | MIC (Chaetomium globosum) [µg/mL] | MIC (Paecillomyces varioti) [µg/mL] | MIC (Trichoderma viride) [µg/mL] | MIC (Aspergillus niger) [µg/mL] | MIC (Pellicularia sasaki) [µg/mL] | MIC (Pyricularia oryzae) [µg/mL] | other results |
| --- | --- | --- | --- | --- | --- | --- | --- | --- | --- | --- | --- | --- | --- | --- |
| O=S1(=O)NC(O)c2ccccc21 (stereo not drawn) [3-hydroxy-2,3-dihydrobenzisothiazole-1,1-dioxide] | 1200 (≈ 6.48 mM) | 600 to 1200 (≈ 3.24 to 6.48 mM) | 600 to 1200 (≈ 3.24 to 6.48 mM) | 600 to 1200 (≈ 3.24 to 6.48 mM) | 600 to 1200 (≈ 3.24 to 6.48 mM) | 600 to 1200 (≈ 3.24 to 6.48 mM) | 300 to 600 (≈ 1.62 to 3.24 mM) | 37.5 to 75 (≈ 0.202 to 0.405 mM) | 18.8 to 37.5 (≈ 0.102 to 0.202 mM) | 75 to 150 (≈ 0.405 to 0.81 mM) | 75 to 150 (≈ 0.405 to 0.81 mM) | 150 (≈ 0.81 mM) | 150 to 200 (≈ 0.81 to 1.08 mM) | MIC (fungi): 37.5 to 600 µg/mL (≈ 0.202 to 3.24 mM); MIC (gram negative bacteria): 600 to 2400 µg/mL (≈ 3.24 to 13 mM); MIC (gram positive bacteria): 600 to 1200 µg/mL (≈ 3.24 to 6.48 mM); MIC (yeasts): 300 to 1200 µg/mL (≈ 1.62 to 6.48 mM); LD50 at 24 h ([1]; ♀ rats): 860 mg/kg; LD50 at 48 h ([1]; ♀ rats): 860 mg/kg; LD50 at 336 h ([1]; ♀ rats): 860 mg/kg; LD50 at 24 h ([1]; ♂ + ♀ rats): 1070 mg/kg; LD50 at 48 h ([1]; ♂ + ♀ rats): 1020 mg/kg; LD50 at 336 h ([1]; ♂ + ♀ rats): 1020 mg/kg; LD50 at 24 h ([1]; ♂ rats): 1380 mg/kg; LD50 at 48 h ([1]; ♂ rats): 1220 mg/kg; LD50 at 336 h ([1]; ♂ rats): 1220 mg/kg; oral toxicity ([1]; result in words): low oral toxicity; bacteriostatic activity [2]: remarkable bacteriostatic activity; effect in combination (certain bacteria): synergistic effect |
| COC1=NS(=O)(=O)c2ccccc21 [3-methoxy-1,2-benzisothiazole-1,1-dioxide, reference compound] | > 1200 | 1200 (≈ 6.08 mM) | 600 to 1200 (≈ 3.04 to 6.08 mM) | > 1200 | > 1200 | > 1200 | > 1200 | > 1200 | 600 to 1200 (≈ 3.04 to 6.08 mM) | > 1200 | > 1200 | 600 to 1200 (≈ 3.04 to 6.08 mM) | > 1200 |  |
